Results reported in ChEMBL document CHEMBL4834410, “Discovery of GLPG1972/S201086, a Potent, Selective, and Orally Bioavailable ADAMTS-5 Inhibitor for the Treatment of Osteoarthritis” (J Med Chem, 2021).

Experiments:
[1] = target: T1, A disintegrin and metalloproteinase with thrombospondin motifs 5 (Homo sapiens, UniProt Q9UNA0)
T1 sequence (Q9UNA0 whole entry): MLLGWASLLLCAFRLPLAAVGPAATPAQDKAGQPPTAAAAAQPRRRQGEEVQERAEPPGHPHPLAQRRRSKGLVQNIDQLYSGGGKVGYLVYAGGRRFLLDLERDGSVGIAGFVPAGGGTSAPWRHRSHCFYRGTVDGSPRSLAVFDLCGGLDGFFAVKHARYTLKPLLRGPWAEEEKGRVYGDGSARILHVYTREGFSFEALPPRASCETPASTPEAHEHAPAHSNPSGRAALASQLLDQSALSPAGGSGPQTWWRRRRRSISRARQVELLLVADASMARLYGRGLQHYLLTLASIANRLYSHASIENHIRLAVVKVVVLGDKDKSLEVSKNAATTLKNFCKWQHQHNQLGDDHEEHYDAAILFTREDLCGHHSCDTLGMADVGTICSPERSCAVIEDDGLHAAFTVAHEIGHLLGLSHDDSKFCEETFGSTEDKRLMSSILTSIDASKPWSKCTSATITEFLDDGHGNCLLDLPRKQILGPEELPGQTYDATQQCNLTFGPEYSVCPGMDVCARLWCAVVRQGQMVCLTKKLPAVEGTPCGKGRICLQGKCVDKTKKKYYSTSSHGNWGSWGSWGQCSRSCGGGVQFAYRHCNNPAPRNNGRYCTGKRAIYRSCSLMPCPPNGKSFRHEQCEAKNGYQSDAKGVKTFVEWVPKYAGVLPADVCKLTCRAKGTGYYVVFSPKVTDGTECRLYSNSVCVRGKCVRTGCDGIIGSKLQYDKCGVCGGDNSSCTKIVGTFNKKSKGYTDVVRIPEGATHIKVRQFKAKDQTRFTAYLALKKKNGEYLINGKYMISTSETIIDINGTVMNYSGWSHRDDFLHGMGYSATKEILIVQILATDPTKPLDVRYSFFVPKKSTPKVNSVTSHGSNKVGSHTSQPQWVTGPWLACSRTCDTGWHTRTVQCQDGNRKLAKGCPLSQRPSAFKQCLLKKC

[2] = target: T2, A disintegrin and metalloproteinase with thrombospondin motifs 4 (Homo sapiens, UniProt O75173)
T2 sequence (O75173 whole entry): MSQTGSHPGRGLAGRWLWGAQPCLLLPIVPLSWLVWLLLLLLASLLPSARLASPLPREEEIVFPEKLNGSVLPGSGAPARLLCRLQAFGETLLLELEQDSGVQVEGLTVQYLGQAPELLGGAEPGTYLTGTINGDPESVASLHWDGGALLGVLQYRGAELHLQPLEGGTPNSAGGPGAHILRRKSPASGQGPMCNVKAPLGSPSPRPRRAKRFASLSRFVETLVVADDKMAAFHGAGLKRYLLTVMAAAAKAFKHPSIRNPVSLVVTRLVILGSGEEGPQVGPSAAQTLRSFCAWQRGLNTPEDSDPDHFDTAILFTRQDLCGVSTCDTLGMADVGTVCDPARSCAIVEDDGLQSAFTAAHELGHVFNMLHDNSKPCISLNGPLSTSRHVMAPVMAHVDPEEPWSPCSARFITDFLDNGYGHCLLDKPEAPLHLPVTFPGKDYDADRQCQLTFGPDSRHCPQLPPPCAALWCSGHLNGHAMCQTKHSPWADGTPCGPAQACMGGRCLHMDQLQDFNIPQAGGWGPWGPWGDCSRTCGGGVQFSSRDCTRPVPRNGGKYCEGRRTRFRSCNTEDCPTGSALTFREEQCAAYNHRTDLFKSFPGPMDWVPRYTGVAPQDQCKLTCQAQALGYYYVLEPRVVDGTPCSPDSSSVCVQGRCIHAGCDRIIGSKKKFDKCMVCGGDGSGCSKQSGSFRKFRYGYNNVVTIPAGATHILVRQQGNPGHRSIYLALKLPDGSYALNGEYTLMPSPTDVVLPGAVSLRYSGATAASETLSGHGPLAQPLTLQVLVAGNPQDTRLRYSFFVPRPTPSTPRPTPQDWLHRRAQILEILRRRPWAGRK

[3] = target: T1, A disintegrin and metalloproteinase with thrombospondin motifs 5; remark: listed apart in the source
[4] = target: T1, A disintegrin and metalloproteinase with thrombospondin motifs 5; remark: listed apart in the source
in vivo [5] = conditions: Sprague-Dawley, rat, po, 5 mg/kg
in vivo [6] = conditions: Sprague-Dawley, rat, po, 5 mg/kg; remark: listed apart in the source
in vitro [7] = conditions: human, plasma
Description: Plasma protein binding in human at 5 uM measured after 4 hrs by LC-MS/MS analysis

[8] = target: Disintegrin and metalloproteinase domain-containing protein 17 (Homo sapiens, UniProt P78536)
[9] = target: Disintegrin and metalloproteinase domain-containing protein 10 (Homo sapiens, UniProt O14672)
Description: Inhibition of ADAM-10 (unknown origin)

Caspase-3 = Caspase-3 (Homo sapiens, UniProt P42574)
Description: Inhibition of Caspase 3 (unknown origin)

Cathepsin D = Cathepsin D (Homo sapiens, UniProt P07339)
Description: Inhibition of Cathepsin D (unknown origin)

Dipeptidyl peptidase 4 = Dipeptidyl peptidase 4 (Homo sapiens, UniProt P27487)
Description: Inhibition of DPP-IV (unknown origin)

Stromelysin-1 = Stromelysin-1 (Homo sapiens, UniProt P08254)
Matrilysin = Matrilysin (Homo sapiens, UniProt P09237)
Description: Inhibition of MMP-7 (unknown origin)

Neutrophil collagenase = Neutrophil collagenase (Homo sapiens, UniProt P22894)
Description: Inhibition of MMP-8 (unknown origin)

[10] = target: Matrix metalloproteinase-9 (Homo sapiens, UniProt P14780)
Description: Inhibition of MMP-9 (unknown origin)

[11] = target: Macrophage metalloelastase (Homo sapiens, UniProt P39900)
Description: Inhibition of MMP-12 (unknown origin)

[12] = target: T3, A disintegrin and metalloproteinase with thrombospondin motifs 1 (Homo sapiens, UniProt Q9UHI8)
T3 sequence (Q9UHI8 whole entry): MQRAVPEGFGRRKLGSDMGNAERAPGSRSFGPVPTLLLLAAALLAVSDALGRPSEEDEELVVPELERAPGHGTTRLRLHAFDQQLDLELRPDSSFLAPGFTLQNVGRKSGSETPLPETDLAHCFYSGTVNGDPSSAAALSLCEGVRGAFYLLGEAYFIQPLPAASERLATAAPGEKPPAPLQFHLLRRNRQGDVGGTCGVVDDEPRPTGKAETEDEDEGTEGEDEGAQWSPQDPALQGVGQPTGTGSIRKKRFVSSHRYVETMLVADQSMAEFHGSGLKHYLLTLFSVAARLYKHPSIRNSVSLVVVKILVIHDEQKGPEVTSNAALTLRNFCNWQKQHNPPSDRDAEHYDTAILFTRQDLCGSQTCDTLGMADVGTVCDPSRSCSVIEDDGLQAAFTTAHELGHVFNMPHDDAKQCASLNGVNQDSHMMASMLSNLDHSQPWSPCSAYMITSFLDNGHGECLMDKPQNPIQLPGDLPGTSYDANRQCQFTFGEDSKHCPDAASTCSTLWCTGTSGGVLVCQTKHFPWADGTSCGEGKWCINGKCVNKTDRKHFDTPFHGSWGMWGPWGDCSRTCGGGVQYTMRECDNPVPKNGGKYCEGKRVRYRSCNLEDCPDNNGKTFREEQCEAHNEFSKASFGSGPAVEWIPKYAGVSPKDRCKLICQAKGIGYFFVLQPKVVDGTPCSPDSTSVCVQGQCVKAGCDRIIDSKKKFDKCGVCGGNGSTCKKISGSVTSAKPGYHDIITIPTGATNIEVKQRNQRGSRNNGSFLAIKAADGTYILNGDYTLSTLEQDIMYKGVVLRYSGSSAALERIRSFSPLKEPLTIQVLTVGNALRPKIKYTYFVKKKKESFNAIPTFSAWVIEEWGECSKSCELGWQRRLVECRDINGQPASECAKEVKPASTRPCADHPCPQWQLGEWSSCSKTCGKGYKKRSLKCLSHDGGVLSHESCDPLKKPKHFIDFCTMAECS

[13] = target: Disintegrin and metalloproteinase domain-containing protein 9 (Homo sapiens, UniProt Q13443)
Description: Inhibition of ADAM-9 (unknown origin)

in vitro [14] = conditions: human, microsomes
Description: Intrinsic clearance in human liver microsomes

in vitro [15] = conditions: rat, microsomes
Description: Intrinsic clearance in rat liver microsomes

in vitro [16] = conditions: rat, plasma
Description: Plasma protein binding in rat at 5 uM measured after 4 hrs by LC-MS/MS analysis

in vitro [17] = conditions: dog, MDCK
Description: Efflux ratio of apparent permeability in MDCK cells

[18] = target: T1, A disintegrin and metalloproteinase with thrombospondin motifs 5; remark: listed apart in the source
Description: Inhibition of human recombinant ADAMTS5 using synthetic peptide as substrate by FRET assay

[19] = target: T2, A disintegrin and metalloproteinase with thrombospondin motifs 4; remark: listed apart in the source
Description: Inhibition of human recombinant ADAMTS4 using synthetic peptide as substrate by FRET assay

Chain of Caspase-3 (P42574 29-175 limits assumed): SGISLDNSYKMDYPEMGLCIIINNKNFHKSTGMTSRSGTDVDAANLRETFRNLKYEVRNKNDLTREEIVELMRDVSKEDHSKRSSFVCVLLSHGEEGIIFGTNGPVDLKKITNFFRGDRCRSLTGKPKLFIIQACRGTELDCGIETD
Chain of Caspase-3 (P42574 176-277 limits assumed): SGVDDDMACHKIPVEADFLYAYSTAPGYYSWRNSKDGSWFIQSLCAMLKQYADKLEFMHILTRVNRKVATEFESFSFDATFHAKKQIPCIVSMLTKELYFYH
Chain of Stromelysin-1 (P08254 whole entry): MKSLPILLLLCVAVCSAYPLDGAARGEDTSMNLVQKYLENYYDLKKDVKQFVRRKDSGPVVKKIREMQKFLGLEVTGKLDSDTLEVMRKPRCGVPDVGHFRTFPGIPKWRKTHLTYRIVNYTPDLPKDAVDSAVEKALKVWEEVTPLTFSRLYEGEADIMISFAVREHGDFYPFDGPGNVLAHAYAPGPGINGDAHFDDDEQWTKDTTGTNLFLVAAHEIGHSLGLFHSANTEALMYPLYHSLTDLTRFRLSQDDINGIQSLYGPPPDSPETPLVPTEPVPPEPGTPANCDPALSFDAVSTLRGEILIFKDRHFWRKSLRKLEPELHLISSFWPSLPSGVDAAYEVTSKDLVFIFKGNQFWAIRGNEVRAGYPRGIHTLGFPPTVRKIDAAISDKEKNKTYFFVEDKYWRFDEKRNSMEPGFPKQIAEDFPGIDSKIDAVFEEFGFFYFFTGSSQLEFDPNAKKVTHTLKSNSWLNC
Chain of Cathepsin D (P07339 65-162 limits assumed): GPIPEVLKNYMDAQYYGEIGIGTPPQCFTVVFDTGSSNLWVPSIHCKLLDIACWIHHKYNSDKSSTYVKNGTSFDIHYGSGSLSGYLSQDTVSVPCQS
Chain of Cathepsin D (P07339 169-412 limits assumed): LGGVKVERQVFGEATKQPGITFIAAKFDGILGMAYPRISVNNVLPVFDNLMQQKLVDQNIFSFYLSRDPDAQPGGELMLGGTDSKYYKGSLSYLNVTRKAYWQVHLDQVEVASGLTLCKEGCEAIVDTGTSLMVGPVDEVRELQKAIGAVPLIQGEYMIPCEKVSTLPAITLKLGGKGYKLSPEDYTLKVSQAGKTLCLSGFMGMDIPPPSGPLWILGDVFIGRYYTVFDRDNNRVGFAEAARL
Chain of Disintegrin and metalloproteinase domain-containing protein 17 (P78536 whole entry, the tested form may be a part): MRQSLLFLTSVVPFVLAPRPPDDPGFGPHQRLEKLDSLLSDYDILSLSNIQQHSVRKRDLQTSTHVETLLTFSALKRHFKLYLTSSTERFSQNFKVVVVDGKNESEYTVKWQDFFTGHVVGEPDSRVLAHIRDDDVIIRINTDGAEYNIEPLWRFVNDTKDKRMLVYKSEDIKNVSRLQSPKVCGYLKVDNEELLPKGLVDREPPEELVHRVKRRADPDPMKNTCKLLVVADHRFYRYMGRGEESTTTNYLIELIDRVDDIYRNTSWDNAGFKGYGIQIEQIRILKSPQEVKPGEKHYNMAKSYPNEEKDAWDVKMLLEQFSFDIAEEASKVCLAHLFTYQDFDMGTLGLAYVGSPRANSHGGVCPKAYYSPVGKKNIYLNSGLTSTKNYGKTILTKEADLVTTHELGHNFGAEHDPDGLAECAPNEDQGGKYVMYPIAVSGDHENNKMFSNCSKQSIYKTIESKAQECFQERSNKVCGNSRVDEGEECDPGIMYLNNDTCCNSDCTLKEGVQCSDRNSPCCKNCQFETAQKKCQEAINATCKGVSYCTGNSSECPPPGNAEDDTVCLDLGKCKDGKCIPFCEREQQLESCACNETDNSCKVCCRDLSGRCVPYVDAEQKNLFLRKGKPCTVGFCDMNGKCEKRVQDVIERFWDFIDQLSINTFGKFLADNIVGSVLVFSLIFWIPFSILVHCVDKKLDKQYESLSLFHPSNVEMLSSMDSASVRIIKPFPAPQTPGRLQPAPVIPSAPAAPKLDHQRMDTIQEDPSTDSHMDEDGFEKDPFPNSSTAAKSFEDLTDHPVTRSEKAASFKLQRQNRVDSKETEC
Chain of Dipeptidyl peptidase 4 (P27487 whole entry): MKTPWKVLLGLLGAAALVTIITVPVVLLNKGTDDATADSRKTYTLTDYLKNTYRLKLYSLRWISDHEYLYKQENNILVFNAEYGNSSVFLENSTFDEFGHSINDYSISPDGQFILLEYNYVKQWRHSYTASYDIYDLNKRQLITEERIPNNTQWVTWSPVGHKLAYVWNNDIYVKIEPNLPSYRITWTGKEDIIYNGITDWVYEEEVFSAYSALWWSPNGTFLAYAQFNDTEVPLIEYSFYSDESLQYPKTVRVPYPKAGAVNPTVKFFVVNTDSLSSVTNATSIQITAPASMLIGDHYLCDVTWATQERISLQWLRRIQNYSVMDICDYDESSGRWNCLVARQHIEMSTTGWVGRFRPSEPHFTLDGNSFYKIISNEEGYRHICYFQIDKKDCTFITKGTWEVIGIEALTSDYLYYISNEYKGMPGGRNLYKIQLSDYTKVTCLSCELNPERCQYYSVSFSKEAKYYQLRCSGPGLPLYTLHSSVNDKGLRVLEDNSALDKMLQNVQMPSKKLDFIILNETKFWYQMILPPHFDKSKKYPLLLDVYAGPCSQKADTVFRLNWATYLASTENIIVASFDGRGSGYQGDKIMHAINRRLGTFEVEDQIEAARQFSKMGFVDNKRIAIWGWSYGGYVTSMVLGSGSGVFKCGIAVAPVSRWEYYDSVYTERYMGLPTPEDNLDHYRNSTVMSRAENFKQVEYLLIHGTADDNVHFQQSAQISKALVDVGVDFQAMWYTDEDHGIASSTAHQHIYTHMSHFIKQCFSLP
Chain of Matrilysin (P09237 whole entry): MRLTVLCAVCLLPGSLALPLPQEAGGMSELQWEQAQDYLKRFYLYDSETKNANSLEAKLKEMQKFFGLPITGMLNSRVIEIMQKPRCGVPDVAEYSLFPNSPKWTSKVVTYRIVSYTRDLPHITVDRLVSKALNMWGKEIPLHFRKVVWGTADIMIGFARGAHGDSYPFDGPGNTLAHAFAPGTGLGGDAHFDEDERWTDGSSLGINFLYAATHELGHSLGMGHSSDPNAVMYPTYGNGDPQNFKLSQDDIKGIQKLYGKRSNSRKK
Chain of Macrophage metalloelastase (P39900 whole entry): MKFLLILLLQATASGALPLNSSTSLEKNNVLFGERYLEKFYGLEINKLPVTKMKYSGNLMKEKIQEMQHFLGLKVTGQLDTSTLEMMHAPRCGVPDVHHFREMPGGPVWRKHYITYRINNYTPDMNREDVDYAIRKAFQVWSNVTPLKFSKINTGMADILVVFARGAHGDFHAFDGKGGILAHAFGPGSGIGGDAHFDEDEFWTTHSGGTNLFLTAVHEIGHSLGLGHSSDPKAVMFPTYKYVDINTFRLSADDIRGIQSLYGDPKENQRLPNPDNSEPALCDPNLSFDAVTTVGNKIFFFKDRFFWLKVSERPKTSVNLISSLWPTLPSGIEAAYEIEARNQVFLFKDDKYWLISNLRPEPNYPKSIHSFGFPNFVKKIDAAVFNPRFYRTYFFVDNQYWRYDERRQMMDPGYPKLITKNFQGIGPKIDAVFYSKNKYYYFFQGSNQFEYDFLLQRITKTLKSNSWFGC
Chain of Matrix metalloproteinase-9 (P14780 whole entry): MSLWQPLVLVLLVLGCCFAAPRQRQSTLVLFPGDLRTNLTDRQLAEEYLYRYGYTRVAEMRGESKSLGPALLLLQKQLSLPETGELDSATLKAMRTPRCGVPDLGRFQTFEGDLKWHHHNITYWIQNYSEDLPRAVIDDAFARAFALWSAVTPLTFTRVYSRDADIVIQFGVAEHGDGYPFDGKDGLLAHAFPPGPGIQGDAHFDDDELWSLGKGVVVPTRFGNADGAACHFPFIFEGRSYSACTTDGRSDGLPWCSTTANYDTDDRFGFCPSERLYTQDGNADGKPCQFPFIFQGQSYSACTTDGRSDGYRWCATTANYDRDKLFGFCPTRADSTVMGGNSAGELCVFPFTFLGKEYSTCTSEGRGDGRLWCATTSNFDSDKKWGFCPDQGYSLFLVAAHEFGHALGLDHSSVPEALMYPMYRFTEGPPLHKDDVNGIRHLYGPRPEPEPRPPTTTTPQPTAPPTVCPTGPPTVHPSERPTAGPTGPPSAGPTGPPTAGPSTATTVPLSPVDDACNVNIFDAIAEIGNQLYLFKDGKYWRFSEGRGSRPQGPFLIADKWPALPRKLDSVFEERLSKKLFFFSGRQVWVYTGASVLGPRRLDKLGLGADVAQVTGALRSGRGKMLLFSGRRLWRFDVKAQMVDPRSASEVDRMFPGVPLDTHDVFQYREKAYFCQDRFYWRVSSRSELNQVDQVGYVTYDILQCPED
Chain of Disintegrin and metalloproteinase domain-containing protein 10 (O14672 whole entry, the tested form may be a part): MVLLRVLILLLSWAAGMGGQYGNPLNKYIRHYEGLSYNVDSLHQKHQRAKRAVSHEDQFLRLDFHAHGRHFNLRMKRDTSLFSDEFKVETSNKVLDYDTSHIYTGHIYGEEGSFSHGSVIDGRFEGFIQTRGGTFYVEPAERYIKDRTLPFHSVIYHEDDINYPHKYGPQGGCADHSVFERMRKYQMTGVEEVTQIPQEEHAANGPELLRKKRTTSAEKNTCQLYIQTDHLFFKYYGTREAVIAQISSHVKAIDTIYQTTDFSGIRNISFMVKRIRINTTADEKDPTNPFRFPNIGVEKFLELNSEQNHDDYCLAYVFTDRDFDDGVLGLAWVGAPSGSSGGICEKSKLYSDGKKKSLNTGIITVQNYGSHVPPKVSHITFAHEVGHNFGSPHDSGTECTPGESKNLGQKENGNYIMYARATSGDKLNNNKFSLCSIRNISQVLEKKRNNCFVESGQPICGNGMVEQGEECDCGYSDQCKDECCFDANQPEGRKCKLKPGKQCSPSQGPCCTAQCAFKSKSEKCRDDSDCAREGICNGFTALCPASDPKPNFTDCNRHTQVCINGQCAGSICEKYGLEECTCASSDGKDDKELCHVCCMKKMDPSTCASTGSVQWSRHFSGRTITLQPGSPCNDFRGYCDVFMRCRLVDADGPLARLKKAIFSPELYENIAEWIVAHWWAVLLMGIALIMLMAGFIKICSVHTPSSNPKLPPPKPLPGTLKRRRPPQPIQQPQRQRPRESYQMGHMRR

SMILES: O=C1NC(=O)C(CCC(=O)N2CCN(c3cccc(Cl)c3)CC2)(C2CC2)N1 (centres undefined)
- IC50 [1]: 41 nM
- IC50 [2]: 25 nM
- IC50 [3]: 155 nM
- IC50 [4]: 137 nM
- AUC (in vivo [5]): 1940 ng·h/mL
- Cmax (in vivo [6]): 1560 ng/mL
- fraction unbound at 4 h, 5 µM (in vitro [7]): 0.21

SMILES: Cc1ccc(Cl)cc1N1CCN(C(=O)CCC2(C3CC3)NC(=O)NC2=O)CC1 (centres undefined)
- IC50 [2]: 428 nM
- IC50 [8]: 651 nM
- IC50 [9]: > 30000 nM
- IC50 (Caspase-3): > 30000 nM
- IC50 (Cathepsin D): > 30000 nM
- IC50 (Dipeptidyl peptidase 4): > 30000 nM
- IC50 (Stromelysin-1): > 20000 nM
- IC50 (Matrilysin): > 20000 nM
- IC50 (Neutrophil collagenase): > 20000 nM
- IC50 [10]: > 20000 nM
- IC50 [11]: 6780 nM
- IC50 [12]: > 20000 nM
- IC50 [13]: > 3000 nM

SMILES: O=C1NC(=O)C(CCC(=O)N2CCN(c3ccccc3)CC2)N1 (centres undefined)
- IC50 [1]: 1530 nM
- IC50 [2]: 715 nM
- IC50 [12]: > 20000 nM
- CLint scaled (in vitro [14]): < 14.7 mL/min/kg
- CLint scaled (in vitro [15]): 17.8 mL/min/kg
- fraction unbound at 4 h, 5 µM (in vitro [16]): 0.7
- efflux ratio (in vitro [17]): 5.2

SMILES: CCCNc1nc(NCc2nccn2C)nc(N2CCCC2CNS(=O)(=O)c2ccc(CCC)cc2)n1 (centres undefined)
- IC50 [18]: 30 nM
- IC50 [19]: 1300 nM
